According to US7432264B2, “Antimicrobial biaryl compounds” (Isis Pharmaceuticals, Inc., priority 2000, dated 2008):
Converted amounts (≈) assume the structure as drawn. Values belong to the compound of their own block, whether it stands above or below them.

Key:
[1] = target: A1061 23S rRNA MS screening construct; experiment: Mass-spec binding assay (SAR by MS, ESI-FTICR-MS); set-up: species or system E. coli
Experimental: Binding affinity of test compounds to a 58 nucleotide fragment of E. coli 23S ribosomal RNA (23S rRNA) was determined using electrospray ionization Fourier transform ion cyclotron resonance mass spectrometry (ESI-FTICR-MS). The structure of the 23S rRNA fragment and its preparation is described by Conn et al (Science, 1999, 284(5417):1171) and Hinck et al (J. Mol. Biol., 1997, 274(1):101) both incorporated herein by reference. The mass spec assay determined the exact chemical composition of ligands that bound to the target rRNA and determined relative or absolute dissociation (KD) of ligands for the target. In the first step of the assay, a mixture of 23S rRNA target and test compound were moved from solution into the gas phase by electrospray ionization. The FT-ICR mass spectrometer served as a parallel set of “scales”, simultaneously measuring the exact molecular masses of the small molecules that bound to the RNA with great accuracy. The mass measurement error for an RNA-ligand complex weighing 10 kDa equals the mass of an electron. At this level of mass accuracy, each compound in the mixture was “labeled” by its molecular formula and exact molecular mass. […]

E. coli ATCC 25922 = experiment: Minimum inhibitory concentration (MIC), E. coli; assay type: cell-based, Escherichia coli
Experimental: (§1) Bacterial Strains. The Streptococcus pyogenes strains, Klebsiella pneumoniae, Escherichia coli, Staphylococcus aureus, Enterococcus faecalis used in the antibacterial activity studies ATCC 14289, 49399, 13883, 25922, 13709, 29212, respectively, are obtained from the American Type Culture Collection, Rockville, Md. The strain E. coli imp— is a mutant strain of wild type E. coli with increased outer membrane permeability and was grown in LB broth at 37 °C. S. pyogenes strain is grown in Todd-Hewitt broth. S. aureus is grown in trypticase soy broth, E. faecalis in Todd-Hewitt broth, wild type E. coli and K. pneumoniae, in nutrient broth.
(§2) Determination of Minimum Inhibitory Concentrations (MICs). The assays were carried out in […] volume in duplicate in 96-well clear flat-bottom plates. The bacterial suspension from an overnight culture growth in appropriate medium was added to a solution of test compound in 4% DMSO in water. Final bacterial inoculum was approximately 10^5-10^6 CFU/well. The percent growth of the bacteria in test wells relative to that observed for a well containing no compound was determined by measuring absorbance at 595 nm (A595) after 24 h. […] Both ampicillin and tetracycline is used as antibiotic-positive controls in each screening assay for S. pyogenes, E. coli imp-, E. coli, S. aureus, E. faecalis, K pneumoniae and P. vulgaris. Ciprofloxacin is used as an antibiotic positive control in each screening assay for P. aeruginosa.

E. faecalis ATCC 29212 = experiment: MIC, Enterococcus faecalis; assay type: cell-based
Experimental: as §1
as §2, with “Ciprofloxacin is used as an antibiotic positive control in each screening assay for P. aeruginosa.” left out

[2] = system: methicillin resistant S. aureus ATCC43300; experiment: MIC, methicillin-resistant S. aureus; assay type: cell-based, Staphylococcus aureus
Experimental: as §2

[3] = system: E. coli S30 bacterial extract (protein synthesis); assay type: biochemical; details: 34 versus 26
Experimental: Coupled Bacterial Transcription/Translation Assay. The DNA template, pBestLuc™ (Promega), is a plasmid containing a reporter gene for firefly luciferase fused to a strong tac promoter and ribosome binding site. Messenger RNA from 1 μg pBestLuc was transcribed and translated in E. coli S30 bacterial extract in the presence or absence of test compound. Compounds were tested in a black 96 well microtiter plate with an assay volume of 35 μL. Each test well contained: 5 μL test compound, 13 μL S30 premix (Promega), 4 μL 10× complete amino acid mix (1 mM each), 5 μL E. coli S30 extract and 8 μL of […] pBestLuc™. The transcription/translation reaction was incubated for 35 minutes at 37° C. followed by detection of functional luciferase with the addition of 30 μL LucLite™ (Packard). Light output was quantitated on a Packard TopCount.

P. vulgaris ATCC 8427 = experiment: MIC, Proteus vulgaris; assay type: cell-based
Experimental: as §2

S. aureus ATCC 13709 = experiment: Minimum inhibitory concentration (MIC), S. aureus; assay type: cell-based, Staphylococcus aureus
Experimental: as §1, §2

[4] = system: eukaryotic protein synthesis; experiment: Eukaryotic protein synthesis, cell-free assay; assay type: biochemical; details: at 200:M
From the text: The biphenyl substitution improves in vitro antibacterial […] 4-fold compared to the phenyl substitution (34 versus 26). […] Biaryl 34 was selected to be evaluated against some additional bacterial strains. […] See Kung, P.-P.; Casper, M. D.; Cook, K. L.; Wilson-Lingardo, L.; Risen, L. M.; Vickers, T. A.; Ranken, R.; Blyn, L. B.; Wyatt, J. R.; Cook, P. D.; Ecker, D. J. J. Med. Chem. 1999, 42, 4705-4713.

S. pyogenes ATCC 49399 = experiment: MIC, Streptococcus pyogenes; assay type: cell-based
Experimental: as §1
as §2, with “Ciprofloxacin is used as an antibiotic positive control in each screening assay for P. aeruginosa.” left out

K pneumoniae ATCC 13383 = experiment: MIC, Klebsiella pneumoniae; assay type: cell-based
Experimental: as §1
as §2, with “Ciprofloxacin is used as an antibiotic positive control in each screening assay for P. aeruginosa.” left out

Kd [1]: 50 µM
SMILES: NCC[C@@H](NC(=O)c1ccco1)C(=O)N1CCNCC1

SMILES: CN(C)CCCOc1ccc(C(NC(=O)c2ccc(-c3cccc(NC(=O)c4ccc(-c5ccccc5)cc4)c3)o2)C(=O)N2CCNCC2)cc1 (stereo not drawn) [Compound 34]
MIC E. coli (E. coli ATCC 25922; E. coli ATCC 25922): 6-13 :M
MIC (E. coli ATCC 25922; Escherichia coli, ATCC25922, 24 h, read-out: MIC (E. coli)): 6 to 13 mM (≈ 4110 to 8920 µg/mL)
MIC Enterococcus faecalis (E. faecalis ATCC 29212): 3-6 :M
MIC methicillin-resistant S. aureus strain [2]: 13-25 :M
fold improvement compared to the phenyl substitution (26) [3]: 4 fold
MIC Proteus vulgaris (P. vulgaris ATCC 8427): 50-100 :M
MIC S. aureus (S. aureus ATCC 13709; S. aureus ATCC 13709): 3-6 :M
MIC (S. aureus ATCC 13709; Staphylococcus aureus, ATCC13709, 24 h, read-out: MIC (S. aureus)): 6 to 13 mM (≈ 4110 to 8920 µg/mL)
inhibition of eukaryotic protein synthesis [4]: not to inhibit
MIC Streptococcus pyogenes (S. pyogenes ATCC 49399): 3-6 :M
MIC Klebsiella pneumoniae (K pneumoniae ATCC 13383): 13-25 :M
